Measured values published in PMC10861560, “Exploiting epigenetic targets to overcome taxane resistance in prostate cancer” (Cell Death & Disease, 2024).

Target: T1, ABCB1 (MDR1) (Homo sapiens, UniProt P08183)
T1 construct: endogenous full-length protein in intact Du145-DtxR cells, detected by western blot after heat shock
Test: cellular thermal shift assay (CETSA), western blot
Format: cell-based
Settings: 5 µM, intact Du145-DtxR cells, 1 h at 37 °C, heat shock 44-52 °C; positive control

T1 sequence (P08183 whole entry): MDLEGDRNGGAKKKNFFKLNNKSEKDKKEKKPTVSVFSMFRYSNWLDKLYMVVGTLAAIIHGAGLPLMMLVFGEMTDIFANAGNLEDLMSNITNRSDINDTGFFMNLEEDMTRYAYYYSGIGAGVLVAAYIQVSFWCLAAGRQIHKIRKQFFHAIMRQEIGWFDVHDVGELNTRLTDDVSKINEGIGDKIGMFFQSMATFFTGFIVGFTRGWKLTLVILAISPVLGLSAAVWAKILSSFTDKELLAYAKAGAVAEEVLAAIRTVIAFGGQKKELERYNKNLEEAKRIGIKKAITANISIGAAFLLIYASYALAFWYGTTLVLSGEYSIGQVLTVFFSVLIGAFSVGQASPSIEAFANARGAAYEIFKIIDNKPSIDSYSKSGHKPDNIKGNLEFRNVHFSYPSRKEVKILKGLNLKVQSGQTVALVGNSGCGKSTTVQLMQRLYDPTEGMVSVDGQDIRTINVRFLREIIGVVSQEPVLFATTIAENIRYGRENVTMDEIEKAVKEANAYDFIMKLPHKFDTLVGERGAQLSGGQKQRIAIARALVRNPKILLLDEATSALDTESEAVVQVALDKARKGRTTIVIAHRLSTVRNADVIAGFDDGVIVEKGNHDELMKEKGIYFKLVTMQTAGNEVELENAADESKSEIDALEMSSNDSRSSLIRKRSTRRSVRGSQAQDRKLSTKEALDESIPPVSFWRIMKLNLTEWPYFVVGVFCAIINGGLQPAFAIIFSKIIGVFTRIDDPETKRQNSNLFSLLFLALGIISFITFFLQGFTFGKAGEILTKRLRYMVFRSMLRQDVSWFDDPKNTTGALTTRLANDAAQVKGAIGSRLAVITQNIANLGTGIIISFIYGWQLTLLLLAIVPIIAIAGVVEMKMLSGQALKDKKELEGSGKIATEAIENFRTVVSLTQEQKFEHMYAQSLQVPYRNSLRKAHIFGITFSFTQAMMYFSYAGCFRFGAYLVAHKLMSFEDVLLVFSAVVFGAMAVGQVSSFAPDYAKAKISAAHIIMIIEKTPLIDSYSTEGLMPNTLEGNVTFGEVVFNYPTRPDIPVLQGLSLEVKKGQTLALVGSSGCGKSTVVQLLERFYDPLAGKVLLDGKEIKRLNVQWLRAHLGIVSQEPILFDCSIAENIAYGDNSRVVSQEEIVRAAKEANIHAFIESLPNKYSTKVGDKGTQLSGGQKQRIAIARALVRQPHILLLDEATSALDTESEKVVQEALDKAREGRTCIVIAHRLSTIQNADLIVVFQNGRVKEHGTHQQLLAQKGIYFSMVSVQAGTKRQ

O[C@@H](COc1cccc2ncccc12)CN1CCN([C@@H]2c3ccccc3[C@@H]3[C@H](c4ccccc42)C3(F)F)CC1 [Zosuquidar]
cellular thermal shift assay (CETSA), western blot: it showed an ABCB1-binding compared to DMSO (Fig. 3H)
